# Reference: patent US5702935A, “Method and compounds for inhibiting lipid biosynthesis of bacteria and plants” (priority 1994, dated 1997)
# “Also recorded” adds a separate entry of the source.
# What was measured:
# [1] = target: T1, InhA (Mycobacterium tuberculosis, UniProt P9WGR1); test: Spectrophotometric (340 nm) assay of InhA-catalyzed NADH-dependent reduction, substrate test and steady-state kinetics
# [2] = system: mycolic acid biosynthesis; assay type: biochemical, M. smegmatis
# [3] = target: T1, InhA; test: Microcalorimetry binding of adenine dinucleotides to InhA; set-up: species or system M. tuberculosis; details: for binding to InhA (in words): microcalorimetry, dinucleotide 0-100 μM
# [4] = system: NC(=O)C1=CN([C@@H]2O[C@H](COP(=O)(O)OP(=O)(O)OC[C@H]3O[C@@H](n4cnc5c(N)ncnc54)[C@H](O)[C@@H]3O)[C@@H](O)[C@H]2O)C=CC1; test: purified protein, by the assay type; details: other: InhA-catalyzed reduction of 2-transoctenoyl-ACP, other substrate saturating
# [5] = system: NADH-dependent enoyl-CoA reductase of M. smegmatis; details: read-out: steady-state Michaelis constant; cited from earlier work
# [6] = system: Brassica enoyl-ACP reductase; details: read-out: steady-state Michaelis constant; cited from earlier work
# T1 sequence (P9WGR1 whole entry, looked up): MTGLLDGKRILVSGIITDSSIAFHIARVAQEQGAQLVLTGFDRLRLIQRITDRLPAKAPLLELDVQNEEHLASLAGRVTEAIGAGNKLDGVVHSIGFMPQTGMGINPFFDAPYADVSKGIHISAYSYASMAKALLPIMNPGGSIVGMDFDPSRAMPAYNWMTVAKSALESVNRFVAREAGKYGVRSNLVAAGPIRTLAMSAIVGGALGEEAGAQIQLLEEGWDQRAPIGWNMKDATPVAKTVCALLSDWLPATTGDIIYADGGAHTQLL
compound,measurement,setting,value
2-transoctenoyl-ACP,maximum velocity,[1]; InhA-catalyzed reduction of 2-transoctenoyl-ACP by NADH,1570 µM/min/mg
same,activity as substrate for InhA in the presence of NADH,[1]; measured spectrophotometrically at 340 nm,Activity was demonstrated
same,Km,"[1]; read-out: steady-state Km, InhA-catalyzed reduction of 2-transoctenoyl-ACP, other substrate saturating",2 µM
NNC(=O)c1ccncc1 [isoniazid],isoniazid-inhibition of mycolic acid biosynthesis (in words),[2],marked resistance to isoniazid-inhibition
NC(=O)c1ccc[n+]([C@@H]2O[C@H](COP(=O)([O-])OP(=O)(O)OC[C@H]3O[C@@H](n4cnc5c(N)ncnc54)[C@H](O)[C@@H]3O)[C@@H](O)[C@H]2O)c1 [NAD],binding to InhA (in words),[3],"Neither NADPH, NADP nor NAD exhibited significant binding; also recorded: failed to show appreciable binding affinity"
InhA (Mycobacterium tuberculosis H37Rv),Km,[4],8 µM
NC(=O)c1ccc[n+]([C@@H]2O[C@H](COP(=O)([O-])OP(=O)(O)OC[C@H]3O[C@@H](n4cnc5c(N)ncnc54)[C@H](OP(=O)(O)O)[C@@H]3O)[C@@H](O)[C@H]2O)c1 [NADP],binding to InhA (in words),[3],"Neither NADPH, NADP nor NAD exhibited significant binding; also recorded: failed to show appreciable binding affinity"
NC(=O)C1=CN([C@@H]2O[C@H](COP(=O)(O)OP(=O)(O)OC[C@H]3O[C@@H](n4cnc5c(N)ncnc54)[C@H](OP(=O)(O)O)[C@@H]3O)[C@@H](O)[C@H]2O)C=CC1 [NADPH],binding to InhA (in words),[3],"Neither NADPH, NADP nor NAD exhibited significant binding; also recorded: failed to show appreciable binding affinity"
CCCCC/C=C/C(=O)SCCNC(=O)CCNC(=O)[C@H](O)C(C)(C)COP(=O)(O)OP(=O)(O)OC[C@H]1O[C@@H](n2cnc3c(N)ncnc32)[C@H](O)[C@@H]1OP(=O)(O)O [octenoyl-CoA],Km,[5],232 µM
octenoyl-ACP,Km,[6],< 1 µM
NC(=O)C1=CN([C@@H]2O[C@H](COP(=O)(O)OP(=O)(O)OC[C@H]3O[C@@H](n4cnc5c(N)ncnc54)[C@H](O)[C@@H]3O)[C@@H](O)[C@H]2O)C=CC1 [NADH],Km,[5],21 µM
same,Km,[6],7.6 µM
same,"binding stoichiometry, molecules per dimer of InhA","[3]; 37° C., 50 mM Tris pH 7.3",two
same,enthalpy of binding,"[3]; 37° C., 50 mM Tris pH 7.3",-13.5 kcal/mol
same,binding to InhA (in words),[3],tight and stoichiometric binding
same,Kd,"[3]; titration calorimetry, 37° C., 50 mM Tris pH 7.3, 100 μM InhA, read-out: Kd (binding constant) for binding to InhA",2000 nM
